Residues, ends and D or L forms follow the SMILES beside them.
Key:
Assay type in all cases: cell-based, human
MMP-2 = assay: Gelatin zymography of conditioned media, MMP-2 production; settings: for metalloprotease production, MMP-2: compared to control containing no peptide
Text: (§1) To assess whether the peptide SEQ ID NO.1 impacted MMP-2, MMP-9 and uPA production Zymography was used.
(§2) Zymography is a technique for studying hydrolytic enzymes on the basis of substrate degradation. The in-gel zymography hydrolytic enzymes are separated by their molecular weights and detected by their ability to degrade a substrate. To detect the activity of MMP-2 and MMP-9 in various cell lines, conditioned media were collected in 3 independent experiments and analysed by gelatin zymography to quantify the level of gelatin digestion, which reflects MMP-2 and MMP-9 activity and production. Casein-Plasminogen zymography was conducted to determine the activity level of uPA in the conditioned medium from various cell lines. Active uPA converts plasminogen into plasmin which then digests casein, thus clear bands where digestion of casein have occurred indirectly represent uPA activity.
(§3) The effect of the peptides on matrix protease production was tested using in-gel zymography. If the substrate included in the gel is gelatin, the enzymes detected are gelatinases: MMP-2 and MMP-9 (the latter is often of low abundance). If the gel contains casein and plasminogen, the enzymes tested are urokinase plasminogen activators (uPA); uPA is a therapeutic target in GBM.
(§4) An equal amount of protein from each sample was mixed with 5 μL of Laemmli buffer (0.01% Bromophenol Blue (W/V), 5% SDS (W/V), 22% glycerol (V/V), 14% 0.5 M Tris pH 6.8 (V/V)) and loaded onto a 10% polyacrylamide gel co-polymerized with 1 mg/ml of gelatin, and electrophoresed at 120 V for 2 hours on ice. The gel was incubated in […] solution (Triton X-100 2.5% (V/V), 1 M Tris pH 7.5 5% (V/V), 0.5 M CaCl2 1% (W/V) at room temperature overnight on an orbital shaker. The gel was incubated in a second solution for 3 hours at 37° C. The gel was then stained with Coomassie blue solution (Coomassie blue 0.25%, methanol 45%, acetic acid 10%) and destained in methanol 25% (V/V), acetic acid 10% (V/V) destaining solution until clear bands against the dark background appeared around 72 kDa and 95 kDa, representing MMP-2 and MMP-9 activity, respectively. Clear bands around 50 kDa appeared against the dark background representing uPA activity. The gels were scanned, and uPA, MMP-2 and MMP-9 were quantified by densitometry using NIH Image J software.
(§5) SEQ ID NO.1 was compared to a control containing no peptide to evaluate whether the peptide can reduce the production of matrix proteinases. […] This could be confirmed using a MMP-9 quantification kit, and altered production by a transcriptional mechanism can be unveiled using qRT-PCR.

MMP-9 = assay: Gelatin zymography of conditioned media, MMP-9 production; settings: compared to control containing no peptide
Text: as §1, §2, §3, §4
as §5, with “proteinases. A reduction in the production of matrix proteinases may be anticipated to result in comparatively less degradation of the extra-cellular matrix and so this could be one pathway by which the invasion potential could be reduced.” for “proteinases.”

Snail-1 mRNA = assay: Real time RT-PCR, Snail-1 mRNA expression
Text: The real-time reverse transcription polymerase chain reaction (RT-PCR) uses fluorescent reporter molecules to monitor the production of amplification products during each cycle of the PCR reaction. This combines the nucleic acid amplification and detection steps into one homogeneous assay and use of appropriate chemistries and data analysis eliminates the need for Southern blotting or DNA sequencing for amplicon identification. Its simplicity, specificity and sensitivity, together with its potential for high throughput and the ongoing introduction of new chemistries, more reliable instrumentation and improved protocols, has made real-time RT-PCR the benchmark technology for the detection and/or comparison of RNA levels.’
In order to detect and quantify the expression of specific genes at mRNA level, real-time reverse transcriptase polymerase chain reaction (Real time RT-PCR) was performed. Total RNA of samples was isolated and purified using the PureLink® RNA Mini Kit (Life technologies). The concentration of total RNA was detected by NanoDrop 2000 Spectrophotometer (Thermo Scientific). The total RNA (2000 ng) was reverse transcribed using the High-Capacity cDNA Reverse Transcription Kit (Applied Biosystems™).
The primers of target genes were TaqMan™ Gene Expression Assay for human PLAU (Hs01547054_m1), MMP-2 (Hs01548727_m1), MMP-9 (Hs00957562_m1), Snail-1 (Hs00195591_m1), Snail-2 (Hs00161904_m1), N-cadherin (Hs00983056_m1) and Twist (Hs01675818_s1). Relative quantification was done by reference to 18S ribosomal RNA (18S rRNA) and analysed using the comparative critical threshold (Ct) method
The mRNA expression of MMPs was measured using qRT-PCR. This was tested three independent times; the results are shown in Tables 9, 10 and 11 for U251, U87 cells and O81024 cells respectively. Results are reported as percent of the control cells (no treatment). Both MMP-2 and uPA were decreased in U251 by SEQ ID NO.1.
Epithelial-mesenchymal transition (EMT) is the process by which epithelial cells acquire a migratory (metastatic) phenotype and so EMT is associated with cancer metastasis, cancer cell stemness, chemoresistance and immune resistance. Therefore, the determination of the mRNA expression of EMT markers is a valuable tool to evaluate invasion potential of cancer cells.
The ‘Snail’ superfamily is involved in cell differentiation and survival, two processes central in cancer research. Snail-1 has a pivotal role in the regulation of epithelial-mesenchymal transition (EMT) and Snail-1 expression is associated with poor prognosis in metastatic cancer, and tumours with elevated Snail-1 expression are harder to treat. The significance of Snail-1 as a prognostic indicator, its involvement in the regulation of EMT and metastasis, and its roles in both drug and immune resistance point out that Snail-1 is an attractive target for tumour growth inhibition and a target for sensitization to cytotoxic drugs (Kaufhold et al., 2014). Twist is transcriptionally active during cell differentiation and lineage determination. During the establishment of cancer metastases by EMT, Twist acts independently of Snail to suppress E-cadherin and to upregulate N-cadherin (CDH-2) and fibronectin. Snail-2 (Slug) is another member of the SNAIL family of transcriptional activators and serves an important role in suppressing the epithelial phenotype in numerous cancer cells (Iwadate, 2016).

CC(C)C[C@@H]1NC(=O)[C@H](C)NC(=O)[C@@H](NC(=O)[C@@H]2CCCN2C(=O)[C@@H](N)CC(C)C)CSSC(C)(C)CNC(=O)CC[C@@H](C(=O)N[C@@H](CCCNC(=N)N)C(N)=O)NC(=O)[C@H](CC(=O)O)NC(=O)[C@H](CC(N)=O)NC1=O [SEQ ID NO: 1, Leu-Pro-c(SSA*-Ala-Leu-Asn-Asp-Glu)-Arg-NH2] (HELM PEPTIDE1{L.P.C.A.L.N.D.E.R.[am]}|CHEM1{[CC(C)(CN[*:2])S[*:1]]}$PEPTIDE1,CHEM1,3:R3-1:R1|PEPTIDE1,CHEM1,8:R3-1:R2$$$V2.0; N-terminus assumed)
metalloprotease production, MMP-2 (MMP-2; 081024 cells): 106.4 | metalloprotease production, MMP-2 (MMP-2; U87 cells): 102.1 | metalloprotease production, MMP-2 (MMP-2; U251 cells): 110.2 | production of MMP-2 (overall, in words) (MMP-2; overall, all cell lines): did not decrease | metalloprotease production, MMP-9 (MMP-9; 081024 cells): 98.96 | metalloprotease production, MMP-9 (MMP-9; U87 cells, listed as SEQ ID NO. 1): 58.61 | metalloprotease production, MMP-9 (MMP-9; U87 cells, listed as SEQ ID NO.1): decreased production | metalloprotease production, MMP-9 (MMP-9; U251 cells, listed as SEQ ID NO. 1): 63.4 | metalloprotease production, MMP-9 (MMP-9; U251 cells, listed as SEQ ID NO.1): decreased production | mRNA expression, Snail-1 (Snail-1 mRNA; 081024 cells, baseline expression level = 1, listed as SEQ ID NO. 1): 0.60 | mRNA expression, Snail-1 (Snail-1 mRNA; 081024 cells, baseline expression level = 1, listed as SEQ ID NO.1): halved | mRNA expression, Snail-1 (Snail-1 mRNA; U87 cells, baseline expression level = 1): 0.84 | mRNA expression, Snail-1 (Snail-1 mRNA; U251 cells, relative to control (no treatment), listed as SEQ ID NO. 1): 0.42 | mRNA expression, Snail-1 (Snail-1 mRNA; U251 cells, relative to control (no treatment), listed as SEQ ID NO.1): decreased

Reference: patent US20240059740A1, “CYCLIC PEPTIDES AND USES THEREOF” (PRE[…] INC., priority 2020, published 2024)
